# In PMC11513854, “De novo GTP synthesis is a metabolic vulnerability for the interception of brain metastases” (Cell Reports Medicine, 2024):
# What was measured:
# lung-BMICs = assay: Intracranial injection of lung-BMICs, daily oral gavage treatment; assay type: in vivo, mice; details: 100 mg/kg daily oral gavage from 24 h after injection; log rank n.s. [MPA], p = 0.0005 [Compound 3]
# Method: The cells were injected intracranially to ensure that any survival benefit would be due to the compounds crossing the BBB and targeting BMICs in the brain.
# (§1) All experimental procedures involving animal work has been reviewed and approved by McMaster University Animal Research Ethics Board. Non-obese diabetic-severe combined immunodeficient IL2r γ ^null (NSG) mice are used for all experiments. Equal numbers of male and female mice were used for all experiments. Healthy mice were 6–8 weeks at time of use. Mice are anesthetized by gas anesthesia using isoflurane (4% induction, 2.5% maintenance) before procedure. Cells were engineered to express firefly luciferase and were injected intracardially, orthotopically, or intracranially as previously described.[13]^,[14]^,[63]^,[64]^,[65] […] Mice are monitored weekly for signs of illness until endpoint.
# patient-derived BMICs [1] = assay: Clonogenic sphere formation assay; assay type: cell-based, human; details: limiting dilution and clonogenic sphere formation assays, IC80
# Method: To assess tumor sphere forming capacity under clonogenic conditions, neurospheres were dissociated into single cells and plated at a low density of 200 cells/well in low-binding tissue culture-treated 96-well plates in serum-free media as previously described.[14]^,[66]^,[67]^,[68]^,[69] Cells were incubated with drug (IC80) or DMSO control, in triplicate, and incubated at 37°C with a humidified atmosphere of 5% CO2. The number of spheres per well were manually counted seven days later. The results were illustrated and analyzed for significance using GraphPad Prism 8 software.
# lung-BMIC line (BT478) = assay: Dose-response assay, PrestoBlue; assay type: cell-based, human; details: for IC50: Homo sapiens, BT478, 72-h treatment, PrestoBlue, N/A, not applicable, read-out: Lung-BM IC50
# Method: For preliminary drug screening, drugs were plated at a concentration of 10 μM in a 96-well plate, in triplicate at a density of 1000 cells/well, and incubated at 37°C with a humidified atmosphere of 5% CO2 for three days. Vehicle controls for cell death are used in each functional experiment. Following treatment, PrestoBlue (20 μL, Invitrogen), a resazurin-based cell viability reagent and fluorescence indicator of cell metabolism, was added to each well to estimate proliferation approximately 2 h prior to measuring fluorescence intensity via FLUOstar Omega Fluorescence 556 Microplate reader (BMG LABTECH) at an excitation and emission wavelength of 540 nm and 590 nm, respectively. Results were analyzed using Omega analysis software.
# (§2) Dose-response assays were conducted using the same protocol apart from drugs being plated using 2-fold serial dilutions (20 μM - 39 nM) as previously described.[66] The half maximal inhibitory concentration (IC50) is determined by plotting percent cell viability by the logarithmic concentration of drug. IC80 concentrations will be used for subsequent functional assays (cell proliferation, sphere formation), as determined by the following formula: ICF=100−F/F^1/H×IC50 where F = fraction of maximal response and H = hill slope.
# [2] = read-out: clinically relevant plasma Cmax concentration; cited from earlier work
# CRUK0748-BM = assay: Dose-response assay on CRUK0748-BM line; assay type: cell-based, human
# Excerpt: To obtain a clinically relevant correlate to the data aforementioned, we acquired two patient-derived lung adenocarcinoma samples: one that was derived from a patient who developed BM following their primary lung tumor diagnosis (CRUK0748), and one that was derived from a patient who, to-date, has not developed BM (CRUK0733). BM-initiating capacity was confirmed in our PDX models (Figure S1C). We harvested the tagged CRUK0748 cells from the brains of mice and cultured them in stem cell-enrichment media conditions to derive a CRUK0748-BM line.
# as §2
# patient-derived BMICs [3] = assay: Clonogenic secondary sphere formation assay after drug removal; assay type: cell-based, human; details: IC80 treatment for 72 h, then removal from culture media
# [4] = system: patient-derived lung-BMICs; assay: Intracardiac injection of lung-BMICs, daily oral gavage treatment; assay type: in vivo, mice; details: 100 mg/kg daily oral gavage, vs placebo
# Excerpt: We next wondered whether a drug used to slow down, or block, BM needed to be BBB penetrant and aimed to uncover whether MPA could target pre-metastatic BMICs in the circulation in a more clinically relevant in vivo treatment model.
# as §1
# Fig S3. MPA m ust cross the blood brain barrier to eff ectively slow the progression of BM over tim e, related to Figures 3 and 4. a, Mice were either orthotopically (intratho racically) or intracardiac injected with lung BMICs, […]
# to placebo, but (f) had the same number of human cells detected in their brains following humane endpoint by flow cytometry. n.s. = not significant. […]
# patient-derived BMICs [5] = assay: Migration (wound healing) assay; assay type: cell-based, human; details: IC80
# Method: Cells were plated at a density of 15,000 to 25,000 cells (depending upon the cell line) per 70 μL media supplemented with 10% FBS into two separate wells of a bi-silicon structure within a 48-well plate. The cells were allowed to adhere for 24 h at 37C within a humidified atmosphere of 5% CO2 to form a monolayer of cells. After 24 h the silicon inserts were detached from the 48-well plate, leaving behind two monolayers of cells that are separated by an empty ‘wound’ and enabling of cell migration into the exclusion zone. […] The plate was inserted into the Incucyte in vitro imaging system where the ‘wound’ was imaged periodically over time. The Incucyte scan type chosen was 300ms adherent cell-by-cell alongside phase and green imaging channels within a 10× objective. The images were uploaded to ImageJ where the wound area was calculated to determine the wound coverage percentage.
# [6] = carboxylic acid functionality; no measurement described; cited from earlier work
# patient-derived BMICs [7] = assay: Cell proliferation assay over time, PrestoBlue; assay type: cell-based, human; details: IC80, PrestoBlue normalized to vehicle
# Method: Cell proliferation assays were conducted using the same protocol, except for drugs being plated at their IC80 for a four-day incubation period. All results were illustrated and analyzed for significance using GraphPad Prism 8 software.
SMILES,survival advantage (lung-BMICs),frequency of stemness in BMIC lines (patient-derived BMICs [1]),IC50 (lung-BMIC line (BT478)) [µM],Cmax [2] [µM],"BMIC proliferation, dose-response (CRUK0748-BM)",sphere-forming capability following drug removal (patient-derived BMICs [3]),brain tumor burden ([4]; 7 days post-injection),difference in brain tumor burden ([4]; 14 days post-injection),migration of patient-derived BMICs (patient-derived BMICs [5]),pKa [6],BMIC proliferation over time (patient-derived BMICs [7]),"selectivity for BMICs compared to normal brain cells (lung-BMIC line (BT478); BT478, MDA-MB-231 Br, BT673 vs neural stem cells, 72 h)"
"COc1c(C)c2c(c(O)c1C/C=C(\C)CCC(=O)O)C(=O)OC2 [MPA, Mycophenolic acid]",no survival advantage,significantly reduces the frequency of stemness,3.61,10,inhibits BMIC proliferation,do not regain sphere-forming capability,significantly reduced brain tumor burden,no longer observed,inhibits the migration,~5,inhibits BMIC proliferation over time,–
COc1c(C)c2c(c(O)c1C/C=C(\C)CCC(=O)OCCN1CCCC1)C(=O)OC2 [Compound 3],significant survival advantage,–,15.3,–,–,–,–,–,–,–,–,retained MPA’s therapeutic window
